Source: patent publication US20140357577A1, “HIV Membrane Fusion Inhibitors” (priority 2011, published 2014)
Starred links: 1 amine or outer side, 2 acyl side, 3 side chain; linkers in the order of their positions; H or OH if unused. Non-standard residues stand in square brackets, D forms with d. *: point of attachment. cholesteryl‑oxycarbonylmethyl = CC(C)CCC[C@@H](C)[C@H]1CC[C@H]2[C@@H]3CC=C4C[C@@H](OC(=O)C*)CC[C@]4(C)[C@H]3CC[C@]12C; C(Bzl) = O=C([C@H](CSCc1ccccc1)N[*:1])[*:2]; Palmitoyl = CCCCCCCCCCCCCCCC(=O)*; Suc = O=C(CCC(=O)[*:2])[*:1]; hCys = N[C@@H](CCS)C(=O)O

Assays:
[1] = test system: HIV wild type virus strain IIIB; experiment: Standard Anti-Viral-Experiment (AVE), HIV-1 replication assay in MT4-LTR-EGFP cells, wild type IIIB; type: cell-based; conditions: 3 days, EGFP signal
Summary of the method: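 MT4-LTR-EGFP cells infected with HIV-1 IIIB, HXB2D or HXB2D gp41 mutants V38A/Q40H alongside serial 4-fold compound dilutions, 3 days at 37° C. EGFP read by laser-scanning microscopy; EC50 by linear interpolation against log concentration. Mutant results given as fold change in EC50 versus wild-type HXB2D.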

[2] = test system: HIV-IIIB + 50% HS; experiment: Standard AVE (50% Human Serum), HIV-1 replication assay in MT4-LTR-EGFP cells; type: cell-based; conditions: fold change vs EC50 in the assay without human serum
Summary of the method: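 MT4-LTR-EGFP cells infected with HIV-1 alongside 4-fold serial compound dilutions in 50% human serum, 3 days at 37 °C. EGFP read by laser-scanning microscopy; EC50 by linear interpolation against log concentration, reported as fold change versus EC50 without serum.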

[3] = test system: HIV mutant virus strain HXB2D with mutation V38A in the gp41 gene; experiment: Standard AVE, HXB2D site directed mutant V38A; type: cell-based, HIV-1; conditions: fold change vs wild type strain HXB2D
Text: (§1) • Standard Anti-Viral-Experiment “AVE” (wild type HIV strain IIIB+HIV strain HXB2D side directed mutants V38A and Q40H)
(§2) The HIV-1 replication assay measures virus replication (HIV wild type virus strain 111B or HXB2D, or a HIV mutant virus strain HXB2D with mutation V38A or Q40H in the gp41 gene) as an induction of enhanced green fluorescent protein (EGFP) expression. The indicator MT4-LTR-EGFP cells contain an EGFP gene under the control of the HIV-1 LTR promoter sequence. Successful HIV-1 infection results in viral Tat protein expression and subsequent induction of EGFP expression. Compounds/peptides inhibiting HIV-1 infection are expected to reduce EGFP expression as compared to the untreated HIV-infected control.
(§3) Serial 4-fold dilutions of test compounds/peptides were mixed with HIV-1 (IIIB, HXB2D, or a HXB2D mutant virus (V38A or Q40H)) and MT4-LTR-EGFP cells and incubated at 37° C. After 3 days, the wells were examined for EGFP expression using an argon laser-scanning microscope. The effective compound/peptide concentration inhibiting 50% of the virus-induced EGFP signal (EC50) was determined by linear interpolation of the EGFP signal vs. logarithm of the compound concentration; (T20, C34 and Sifuvirtide were added as reference compounds). For the V38A and Q40H mutant viruses, results were reported as a fold change in EC50, as compared with a drug-susceptible wild type strain HXB2D, which forms the backbone of the mutant virus. • Standard AVE (50% Human Serum)

[4] = test system: HIV mutant virus strain HXB2D with mutation Q40H in the gp41 gene; experiment: Standard AVE, HXB2D site directed mutant Q40H; type: cell-based, HIV-1; conditions: fold change vs wild type strain HXB2D
Text: as §1, §2, §3

| Substance | EC50 [1] [nM] | HIV-IIIB + 50% HS (Fold change in EC50) [2] | HIV-HXB2D V38A mutant (fold change in EC50) [3] | HIV-HXB2D Q40H mutant (fold change in EC50) [4] |
| --- | --- | --- | --- | --- |
| Ac-A-C(Bzl)-YAALIEALIRAAQEQQEKNEAALR-NH2 ({Ac-Ala-C(Bzl)}-YAALIEALIRAAQEQQEKNEAALR-NH2; SMILES CC[C@H](C)[C@H](NC(=O)[C@H](CC(C)C)NC(=O)[C@H](C)NC(=O)[C@H](CCC(=O)O)NC(=O)[C@@H](NC(=O)[C@H](CC(C)C)NC(=O)[C@H](C)NC(=O)[C@H](C)NC(=O)[C@H](Cc1ccc(O)cc1)NC(=O)[C@H](CSCc1ccccc1)NC(=O)[C@H](C)NC(C)=O)[C@@H](C)CC)C(=O)N[C@@H](CCCNC(=N)N)C(=O)N[C@@H](C)C(=O)N[C@@H](C)C(=O)N[C@@H](CCC(N)=O)C(=O)N[C@@H](CCC(=O)O)C(=O)N[C@@H](CCC(N)=O)C(=O)N[C@@H](CCC(N)=O)C(=O)N[C@@H](CCC(=O)O)C(=O)N[C@@H](CCCCN)C(=O)N[C@@H](CC(N)=O)C(=O)N[C@@H](CCC(=O)O)C(=O)N[C@@H](C)C(=O)N[C@@H](C)C(=O)N[C@@H](CC(C)C)C(=O)N[C@@H](CCCNC(=N)N)C(N)=O) [Peptide 4] | 10 | 2 | 74 | – |
| Ac-ACY-Cha-ACIEALIRAAQEQQEKNEAALR-NH2 [Peptide 59] | 3 | 3 | 18 | 44 |
| Ac-ACY-Tba-ACIEALIRAAQEQQEKNEAALR-NH2 [Peptide 60] | 5 | 3 | 18 | – |
| Ac-ACYAACIEALIRAAQEQQEKNEAALRGSGC(cholesteryl-oxycarbonylmethyl)-NH2 [81] (Ac-ACYAACIEALIRAAQEQQEKNEAALRGSGC(cholesteryl‑oxycarbonylmethyl)-NH2; cysteine pairing not given here) [Peptide 81] | 0.3 | 4 | 4 | 24 |
| Ac-ACYAACIEALIRAAQEQQEKNEAALRGSGC(cholesteryl-oxycarbonylmethyl)-NH2 [87] (Ac-ACYAACIEALIRAAQEQQEKNEAALRGSGC(cholesteryl‑oxycarbonylmethyl)-NH2; cysteine pairing not given here) [Peptide 87] | 0.1 | 14 | 1 | 5 |
| Ac-A[hCys]YAA[hCys]IEALIRAAQEQQEKNEAALR-NH2 (cysteine pairing not given here) [Peptide 77] | 6 | 3 | 39 | 304 |
| Ac-A[hCys]YAA[hCys]IEALIRAAQEQQEKNEAALR-NH2 (cysteine pairing not given here) [Peptide 78] | 5 | 3 | 61 | 355 |
| Ac-A[hCys]YAA[hCys]IEALIRKAQEQQEKNEAALR-NH2 (cysteine pairing not given here) [Peptide 79] | 5 | 2 | 27 | 284 |
| Ac-A[hCys]YAA[hCys]IEALIRKAQEQQEKNEAALR-NH2 (cysteine pairing not given here) [Peptide 80] | 2 | 2 | 40 | 375 |
| Suc-ACY-Abu-ACIEALIRAAQEQQEKNEAALR-NH2 [Peptide 49] | 6 | 0.6 | 33 | – |
| Suc-ANYLALIEALIRAAQEQQEKNEAALK(palmitoyl)-NH2 (Suc-ANYLALIEALIRAAQEQQEKNEAALK(Palmitoyl)-NH2; SMILES CCCCCCCCCCCCCCCC(=O)NCCCC[C@H](NC(=O)[C@H](CC(C)C)NC(=O)[C@H](C)NC(=O)[C@H](C)NC(=O)[C@H](CCC(=O)O)NC(=O)[C@H](CC(N)=O)NC(=O)[C@H](CCCCN)NC(=O)[C@H](CCC(=O)O)NC(=O)[C@H](CCC(N)=O)NC(=O)[C@H](CCC(N)=O)NC(=O)[C@H](CCC(=O)O)NC(=O)[C@H](CCC(N)=O)NC(=O)[C@H](C)NC(=O)[C@H](C)NC(=O)[C@H](CCCNC(=N)N)NC(=O)[C@@H](NC(=O)[C@H](CC(C)C)NC(=O)[C@H](C)NC(=O)[C@H](CCC(=O)O)NC(=O)[C@@H](NC(=O)[C@H](CC(C)C)NC(=O)[C@H](C)NC(=O)[C@H](CC(C)C)NC(=O)[C@H](Cc1ccc(O)cc1)NC(=O)[C@H](CC(N)=O)NC(=O)[C@H](C)NC(=O)CCC(=O)O)[C@@H](C)CC)[C@@H](C)CC)C(N)=O) [Peptide 13] | 0.4 | 9 | – | 9 |
| Suc-ANYLALIEALIRAAQEQQEKNEAALR-NH2 (SMILES CC[C@H](C)[C@H](NC(=O)[C@H](CC(C)C)NC(=O)[C@H](C)NC(=O)[C@H](CCC(=O)O)NC(=O)[C@@H](NC(=O)[C@H](CC(C)C)NC(=O)[C@H](C)NC(=O)[C@H](CC(C)C)NC(=O)[C@H](Cc1ccc(O)cc1)NC(=O)[C@H](CC(N)=O)NC(=O)[C@H](C)NC(=O)CCC(=O)O)[C@@H](C)CC)C(=O)N[C@@H](CCCNC(=N)N)C(=O)N[C@@H](C)C(=O)N[C@@H](C)C(=O)N[C@@H](CCC(N)=O)C(=O)N[C@@H](CCC(=O)O)C(=O)N[C@@H](CCC(N)=O)C(=O)N[C@@H](CCC(N)=O)C(=O)N[C@@H](CCC(=O)O)C(=O)N[C@@H](CCCCN)C(=O)N[C@@H](CC(N)=O)C(=O)N[C@@H](CCC(=O)O)C(=O)N[C@@H](C)C(=O)N[C@@H](C)C(=O)N[C@@H](CC(C)C)C(=O)N[C@@H](CCCNC(=N)N)C(N)=O) [Peptide 7] | 2 | 0.6 | – | 764 |
| Suc-ECYLRCIEELIRKAQEQQEKNEAALR-NH2 (cysteine pairing not given here) [Peptide 29] | 0.8 | 0.6 | – | 98 |
| Suc-ENYLRLIEELIRKAQEQQEKNEAALR-NH2 (SMILES CC[C@H](C)[C@H](NC(=O)[C@H](CC(C)C)NC(=O)[C@H](CCC(=O)O)NC(=O)[C@H](CCC(=O)O)NC(=O)[C@@H](NC(=O)[C@H](CC(C)C)NC(=O)[C@H](CCCNC(=N)N)NC(=O)[C@H](CC(C)C)NC(=O)[C@H](Cc1ccc(O)cc1)NC(=O)[C@H](CC(N)=O)NC(=O)[C@H](CCC(=O)O)NC(=O)CCC(=O)O)[C@@H](C)CC)C(=O)N[C@@H](CCCNC(=N)N)C(=O)N[C@@H](CCCCN)C(=O)N[C@@H](C)C(=O)N[C@@H](CCC(N)=O)C(=O)N[C@@H](CCC(=O)O)C(=O)N[C@@H](CCC(N)=O)C(=O)N[C@@H](CCC(N)=O)C(=O)N[C@@H](CCC(=O)O)C(=O)N[C@@H](CCCCN)C(=O)N[C@@H](CC(N)=O)C(=O)N[C@@H](CCC(=O)O)C(=O)N[C@@H](C)C(=O)N[C@@H](C)C(=O)N[C@@H](CC(C)C)C(=O)N[C@@H](CCCNC(=N)N)C(N)=O) [Peptide 20] | 0.7 | 1 | – | 80 |
